According to the NIST ThermoML archive (doi:10.1021/je900874z):

Key:
[1] = xn = mol fraction of the nth substance listed; conditions: 101 kPa, Liquid
[2] = 101.33 kPa, Liquid; for speed of sound: Pulse-echo method

Nc1ccccc1 [aniline] + CC(C)=O
[1]
Conditions	mass density [kg/m3]
293.15 K, x2 = 0.0522	1013.71
293.15 K, x2 = 0.1078	1004.97
293.15 K, x2 = 0.1567	996.941
293.15 K, x2 = 0.2074	988.429
293.15 K, x2 = 0.249	981.269
293.15 K, x2 = 0.3016	971.707
293.15 K, x2 = 0.3454	963.326
293.15 K, x2 = 0.3832	955.799
293.15 K, x2 = 0.4313	946.013
293.15 K, x2 = 0.4908	933.416
293.15 K, x2 = 0.5497	920.272
293.15 K, x2 = 0.583	912.529
293.15 K, x2 = 0.6446	897.535
293.15 K, x2 = 0.6911	885.684
293.15 K, x2 = 0.7465	870.629
293.15 K, x2 = 0.8046	854.022
293.15 K, x2 = 0.8497	840.545
293.15 K, x2 = 0.9045	823.238
293.15 K, x2 = 0.9475	809.118
298.15 K, x2 = 0.0569	1008.67
298.15 K, x2 = 0.1088	1000.44
298.15 K, x2 = 0.1539	993.118
298.15 K, x2 = 0.1978	985.694
298.15 K, x2 = 0.2484	976.895
298.15 K, x2 = 0.3039	966.77
298.15 K, x2 = 0.3505	957.976
298.15 K, x2 = 0.4114	945.773
298.15 K, x2 = 0.4585	935.933
298.15 K, x2 = 0.5035	926.122
298.15 K, x2 = 0.5501	915.531
298.15 K, x2 = 0.5922	905.703
298.15 K, x2 = 0.6499	891.425
298.15 K, x2 = 0.6993	878.643
298.15 K, x2 = 0.7522	864.125
298.15 K, x2 = 0.8082	848.052
298.15 K, x2 = 0.8533	834.272
298.15 K, x2 = 0.8951	821.048
298.15 K, x2 = 0.9545	801.258
303.15 K, x2 = 0.0515	1005.02
303.15 K, x2 = 0.1002	997.272
303.15 K, x2 = 0.1475	989.506
303.15 K, x2 = 0.1926	981.799
303.15 K, x2 = 0.2399	973.527
303.15 K, x2 = 0.3024	962.003
303.15 K, x2 = 0.3475	953.088
303.15 K, x2 = 0.3947	943.989
303.15 K, x2 = 0.4503	932.55
303.15 K, x2 = 0.4979	922.075
303.15 K, x2 = 0.5502	910.191
303.15 K, x2 = 0.6037	897.422
303.15 K, x2 = 0.6464	886.697
303.15 K, x2 = 0.6975	873.362
303.15 K, x2 = 0.7548	857.721
303.15 K, x2 = 0.8078	842.147
303.15 K, x2 = 0.8567	827.148
303.15 K, x2 = 0.9014	812.779
303.15 K, x2 = 0.9494	796.575

c1ccncc1 [pyridine]
[2]
Conditions	mass density [kg/m3]	speed of sound [m/s]
293.15 K	983.053	1436.7
298.15 K	978.05	1416.7
303.15 K	972.98	1396.6

c1ccncc1 [pyridine] + CC(C)=O
[1]
Conditions	mass density [kg/m3]
293.15 K, x2 = 0.0577	973.393
293.15 K, x2 = 0.1007	966.028
293.15 K, x2 = 0.1536	956.946
293.15 K, x2 = 0.2043	948.163
293.15 K, x2 = 0.2219	945.011
293.15 K, x2 = 0.2968	931.713
293.15 K, x2 = 0.3537	921.354
293.15 K, x2 = 0.4051	911.899
293.15 K, x2 = 0.5191	890.383
293.15 K, x2 = 0.5519	884.082
293.15 K, x2 = 0.5969	875.296
293.15 K, x2 = 0.6425	866.297
293.15 K, x2 = 0.703	854.168
293.15 K, x2 = 0.7504	844.514
293.15 K, x2 = 0.8066	832.904
293.15 K, x2 = 0.8569	822.218
293.15 K, x2 = 0.9019	812.518
293.15 K, x2 = 0.9456	803.006
298.15 K, x2 = 0.0514	969.365
298.15 K, x2 = 0.0969	961.623
298.15 K, x2 = 0.1486	952.705
298.15 K, x2 = 0.2023	943.375
298.15 K, x2 = 0.2444	935.93
298.15 K, x2 = 0.296	926.692
298.15 K, x2 = 0.3544	916.021
298.15 K, x2 = 0.3965	908.33
298.15 K, x2 = 0.4516	898.006
298.15 K, x2 = 0.5036	888.119
298.15 K, x2 = 0.594	870.616
298.15 K, x2 = 0.6454	860.492
298.15 K, x2 = 0.6971	850.007
298.15 K, x2 = 0.7518	838.783
298.15 K, x2 = 0.8049	827.707
298.15 K, x2 = 0.8456	819.096
298.15 K, x2 = 0.8955	808.385
298.15 K, x2 = 0.9456	797.415
303.15 K, x2 = 0.0493	964.637
303.15 K, x2 = 0.0954	956.714
303.15 K, x2 = 0.1463	947.874
303.15 K, x2 = 0.1983	938.736
303.15 K, x2 = 0.2424	930.863
303.15 K, x2 = 0.2929	921.779
303.15 K, x2 = 0.3522	910.875
303.15 K, x2 = 0.4048	901.126
303.15 K, x2 = 0.4497	892.629
303.15 K, x2 = 0.497	883.593
303.15 K, x2 = 0.5412	875.069
303.15 K, x2 = 0.5965	864.243
303.15 K, x2 = 0.6594	851.677
303.15 K, x2 = 0.6912	845.142
303.15 K, x2 = 0.7491	833.115
303.15 K, x2 = 0.8475	812.305
303.15 K, x2 = 0.8946	802.071
303.15 K, x2 = 0.9443	791.125
